Square brackets hold non-standard residues; d marks the D form. Peptide text beside a SMILES is read from it. * marks the point of attachment. Sta = CC(C)C[C@H](N)[C@@H](O)CC(=O)O; Isovaleryl = CC(C)CC(=O)*
Assays:
[1] = Microsome stability assay; format: in vitro ADME; conditions: for Area rel. [%] (liver microsomes, NC): 90 min, 1 µM, pH 7.4; for Area rel. [%] (liver microsomes, PC): positive control, relative to t=0
Description: Microsome Stability Assay The liver is the main organ of drug metabolism in the body. Subcellular fractions such as liver microsomes are useful in vitro models of hepatic clearance as they contain many of the drug metabolising enzymes found in the liver. Liver microsomes are subcellular fractions which contain membrane bound drug metabolising enzymes. The microsomes are incubated with the test compound at 37° C. in the presence of the co-factors, which initiates the reaction. The reaction is terminated by the addition of organic solvents containing internal standard. Following centrifugation, the supernatant is analysed on the LC-MS/MS. The disappearance of test compound is monitored over certain time period. Here, a microsome stability assay was used to investigate the metabolism of the compounds; using this assay it is possible to measure in vitro the intrinsic clearance or to identify metabolites formed. For a standard assay the following solutions were used: 360 μL Microsomal solution (1.1 mg/mL in phosphate buffer), 360 μL NADP-regeneration mix (containing NADP (10 mM), MgCl2 (50 mM), glucose-6-phosphate (50 mM), glucose-6-phosphate dehydrogenase (50 U/ml)) and 40 μL phosphate buffer (100 mM, pH 7.4). Diclofenac (10 μL, 200 μM) was used as positive control (360 μL Microsomal solution, 360 μL NADP-regeneration mix and 40 μL Phosphate buffer) and phosphate buffer (360 μL Microsomal solution, 360 μL NADP-regeneration mix) served as negative control. […] The following procedure was applied: 40 μL of the working solution was added to a pre-incubated solution containing the microsomal solution and the NADP-regeneration mix at 37° C./1500 rpm. Samples were prepared as follows: […] Samples were mixed at 1500 rpm for 2 min, centrifuged for 2 min at 16.1 krcf. 5 uL of each sample was injected to a UPLC/HRMS system and the peak areas of the extracted ion chromatograms were determined

Glutathione (GSH) assay = format: in vitro ADME; conditions: relative to t=0; for Area rel. [%] (GSH assay, NC): negative control: test item in phosphate buffer without GSH, time 90 min; for Area rel. [%] (GSH assay): with GSH, 37° C.
Description: Procedure: A standard GSH assay includes a phosphate buffer (720 μL), a GSH solution (40 μL, 100 mM) and the test solution of the test compound (20 μM in 10% DMSO in phosphate buffer (100 mM, pH 7.4)). As negative control (NC) serves the test item (20 μM in 10% DMSO in phosphate buffer (100 mM, pH 7.4) in phosphate buffer (760 μL).
Samples are prepared as follows: phosphate buffer (720 μL) and GSH solution (40 μL, 100 mM) were preincubated at 37° C., and 40 μL of the test item solution (or internal standard) added. Then […] of the assay mixture were mixed with 100 μL ACN were at the following time points: t=0, 30 and 90 min; in case of the test item, t=0 and 90 min in case of PC or NC. The samples were mixed for 2 min at 150 rpm, centrifuged at 16.1 (krcf). 5 μL of each samples were injected to a UPLC/HRMS system. The peak areas of the extracted ion chromatograms were determined using the standard software.

Cathepsin B = Cathepsin B (Homo sapiens, UniProt P07858); test: Activity test against cathepsin B (initial screen, Table 5); format: biochemical; set-up: dose or concentration left out as unconfirmed
Description: (§1) Activity Tests Against Cathepsin B, Cathepsin L and Rhodesain.
(§2) The determination of the activity of the inhibitors against hCatL and RD was performed in fluorescence-based assays in accordance with the assays described in Giroud et al., ChemMedChem 12 (2017), 257-270 and Schirmeister, Bioorganic & Medicinal Chemistry Letters 27 (2017) 45-50. The biological activities against hCatL were determined using Cbz-Phe-Arg-AMC as substrate, which releases AMC (7-amino-4-methylcoumarin) after amide bond cleavage by the enzyme. The proteolytic activity of the enzyme can be monitored spectrophotometrically by the increase of fluorescence intensity by release of AMC (emission at 460 nm) upon hydrolysis. An initial screen at an inhibitor concentration […] was performed to identify ligands with an inhibition of hCatL and RD higher than 80%.

hCatL = hCatL (Homo sapiens, UniProt P07711); test: Fluorescence-based activity test against cathepsin L (Cbz-Phe-Arg-AMC); format: biochemical; set-up: dose or concentration left out as unconfirmed
Description: as §1, §2

thermolysin = molecular target: T1, thermolysin (Bacillus thermoproteolyticus, UniProt P00800); test: Protease assay with azocasein: thermolysin; format: biochemical; conditions: 10 mM
T1 construct: purchased Sigma-Aldrich P1512
Description: (§3) Protease Assays with azocasein: Protease inhibition assays against the proteases papain, ficin, trypsin, pepsin and thermolysin were performed according to the protocol of Garcia-Carreño (loc. cit.) in a reaction buffer containing 25 mM TRIS-HCl, 0.15 M NaCl, pH 7.2 (or pH 3.5 for aspartic protease). The total assay volume was 47 μL buffer with 2 μL of the protease as well as 1 μL of suitable inhibitor or corresponding inhibitor solvent (100% MeoH or water). Final concentration of proteases was as follows: 2 mg/mL for papain (Sigma-Aldrich, P4762), 600 μg/mL for ficin (Sigma-Aldrich, F6008), 80 μg/mL for trypsin (Thermo Fisher, 23266), 60 mg/mL for pepsin (Sigma-Aldrich P6887)) and 2 μg/mL for thermolysin (Sigma-Aldrich, P1512).
(§4) Inhibitors were dissolved in 100% MeOH or water and added to the assay (1 μL); final concentration: 2% MeOH. Samples of control inhibitors were prepared as follows: (1) serine protease (trypsin): PMFS (2 mM) and soybean trypsin inhibitor (240 μM) (Sigma-Aldrich, T1021), (2) cysteine proteases (papain and ficin): iodacetamide (2 mM), (3) […] (pepsin): pepstatin A (1 μg/mL) (Sigma-Aldrich, P4265), (4) metalloprotease (thermolysin): EDTA (10 mM). […] Negative controls were performed with protease alone (without inhibitor) and MeOH at a final concentration of 2% (reference for activity of 100%). Extract absorbance controls were performed using inhibitor (1 μL in MeOH) without protease. Blanks were performed using 49 μL buffer and 1 μL MeOH.
(§5) Samples were incubated with buffer and suitable inhibitor (or without for negative controls) for 1 h at r.t. and the reaction was started afterward by adding 50 μl of […] substrate and incubated for 1 h at 37° C. After stopping the reaction with trichloracetic acid (TCA), the separation of the precipitate was accomplished by centrifugation at 6500 g for 5 min. The hydrolyzed substrate supernatant was incubated in an equal volume of 0.5 N NaOH for 5 min and the absorbance was measured at 440 nm. OD values of the protease control without inhibitor were used as reference for a 100% activity.
(§6) The log IC50 values were determined using the standard curves analyzing tool with four parameter logistic equation of SigmaPlot12 with technical triplicates. Propagation of error was calculated using the standard error and log IC50 values where the equation of error propagation is defined as Δy=0.43Δx/x.

pepsin = molecular target: T2, pepsin (Sus scrofa, UniProt P00791); test: Protease assay with azocasein: pepsin; format: biochemical; conditions: 1 μg/mL
T2 construct: purchased Sigma-Aldrich P6887
Description: as §3, §4, §5, §6

Sequence of hCatL (P07711 114-333): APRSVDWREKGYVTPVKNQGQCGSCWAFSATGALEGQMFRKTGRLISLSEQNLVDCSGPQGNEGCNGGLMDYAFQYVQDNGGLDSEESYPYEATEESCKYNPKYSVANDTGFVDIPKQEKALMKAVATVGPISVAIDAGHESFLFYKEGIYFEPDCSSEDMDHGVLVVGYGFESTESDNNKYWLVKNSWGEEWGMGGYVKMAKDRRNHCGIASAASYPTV
T2 sequence (P00791 60-385): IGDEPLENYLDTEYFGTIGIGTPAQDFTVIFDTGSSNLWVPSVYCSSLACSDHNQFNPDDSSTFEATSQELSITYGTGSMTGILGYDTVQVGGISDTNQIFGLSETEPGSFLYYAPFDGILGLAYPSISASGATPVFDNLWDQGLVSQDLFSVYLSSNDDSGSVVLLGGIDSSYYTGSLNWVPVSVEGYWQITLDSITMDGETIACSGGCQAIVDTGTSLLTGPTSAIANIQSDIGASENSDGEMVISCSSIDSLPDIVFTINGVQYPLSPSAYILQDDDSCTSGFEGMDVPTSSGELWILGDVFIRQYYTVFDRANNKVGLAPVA
T1 sequence (P00800 233-548): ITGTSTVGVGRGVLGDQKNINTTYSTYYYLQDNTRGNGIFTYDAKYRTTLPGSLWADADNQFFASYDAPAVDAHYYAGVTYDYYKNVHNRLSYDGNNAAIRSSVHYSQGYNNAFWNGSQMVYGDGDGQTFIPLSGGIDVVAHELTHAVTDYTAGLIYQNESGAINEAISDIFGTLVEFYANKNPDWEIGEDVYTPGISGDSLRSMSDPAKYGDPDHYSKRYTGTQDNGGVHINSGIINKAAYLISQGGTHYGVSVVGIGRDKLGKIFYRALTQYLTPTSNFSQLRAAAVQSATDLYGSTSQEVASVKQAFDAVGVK

CCCCC/C=C/C(=O)N[C@@H](Cc1ccc(O)cc1)C(=O)N[C@H](/C=C/C(=O)O)CCCNC(=N)N [drawing 59]
Area rel. [%] (liver microsomes, NC) [1]: 92.3%

CCCCC/C=C/C(=O)N[C@@H](Cc1ccc(O)cc1)C(=O)N[C@@H](/C=C/C(=O)O)CCCCN [drawing 60]
Area rel. [%] (liver microsomes, NC) [1]: 95.7%

CCCCC/C=C/C(=O)N[C@@H](Cc1ccc(O)cc1)C(=O)N[C@H](/C=C/C(=O)O)CCCNC(=N)N [drawing 51]
Area rel. [%] (GSH assay, NC) (Glutathione (GSH) assay): 91.9% | Area rel. [%] (GSH assay) (Glutathione (GSH) assay; pH 7.4, time 30 min): 93.3% | Area rel. [%] (GSH assay) (Glutathione (GSH) assay; pH 7.4, time 90 min): 94.2%

CCCCC/C=C/C(=O)N[C@@H](Cc1ccccc1)C(=O)N[C@H](/C=C/C(=O)O)CCCNC(=N)N [drawing 47]
inhibition (Cathepsin B): 41% | inhibition (hCatL): 90%

CC(=O)N[C@@H](Cc1ccc(O)cc1)C(=O)N[C@H](/C=C/C(=O)O)CCCNC(=N)N [drawing 66]
Area rel. [%] (liver microsomes, NC) [1]: 111.9%

CCCCC/C=C/C(=O)N[C@@H](Cc1ccc(O)cc1)C(=O)N[C@@H](/C=C/C(=O)O)CCCNC(=N)N [drawing 48]
inhibition (Cathepsin B): 15% | inhibition (hCatL): 20%

CC(=O)N[C@@H](Cc1ccc(O)cc1)C(=O)N[C@H](/C=C/C(=O)O)CCCNC(=N)N [drawing 58]
Area rel. [%] (GSH assay, NC) (Glutathione (GSH) assay): 108.9% | Area rel. [%] (GSH assay) (Glutathione (GSH) assay; pH 7.4, time 90 min): 112.8%

CCCCC/C=C/C(=O)N[C@@H](Cc1ccccc1)C(=O)N[C@H](/C=C/C(=O)O)CCCNC(=N)N [drawing 53]
Area rel. [%] (GSH assay, NC) (Glutathione (GSH) assay): 101.8% | Area rel. [%] (GSH assay) (Glutathione (GSH) assay; pH 7.4, time 30 min): 102.7% | Area rel. [%] (GSH assay) (Glutathione (GSH) assay; pH 7.4, time 90 min): 106.2%

CCCCCCCC(=O)N[C@@H](Cc1ccc(O)cc1)C(=O)N[C@H](/C=C/C(=O)O)CCCNC(=N)N [drawing 50]
inhibition (Cathepsin B): 30% | inhibition (hCatL): 80%

O=C(O)Cc1ccccc1Nc1c(Cl)cccc1Cl [Diclo, Diclofenac, reference compound]
Area rel. [%] (liver microsomes, PC) ([1]; time 10 min): 49.0% | Area rel. [%] (liver microsomes, PC) ([1]; time 35 min): 3.8%

CCCCC/C=C/C(=O)N[C@@H](Cc1ccc(O)cc1)C(=O)N[C@H](/C=C/C(=O)O)CCCNC(=N)N [drawing 45]
inhibition (Cathepsin B): 50% | inhibition (hCatL): 95%

CCCCC/C=C/C(=O)N[C@@H](Cc1ccc(O)cc1)C(=O)N[C@@H](/C=C/C(=O)O)CCCNC(=N)N [drawing 62]
Area rel. [%] (liver microsomes, NC) [1]: 102.8%

CCCCC/C=C/C(=O)N[C@H](Cc1ccc(O)cc1)C(=O)N[C@H](/C=C/C(=O)O)CCCNC(=N)N [drawing 63]
Area rel. [%] (liver microsomes, NC) [1]: 105.8%

O=C(O)CN(CCN(CC(=O)O)CC(=O)O)CC(=O)O [EDTA, reference compound]
inhibited enzyme activity (thermolysin), control inhibitor (thermolysin): > 95%

CCCCC/C=C/C(=O)N[C@H](Cc1ccc(O)cc1)C(=O)N[C@H](/C=C/C(=O)O)CCCNC(=N)N [drawing 55]
Area rel. [%] (GSH assay, NC) (Glutathione (GSH) assay): 91.9% | Area rel. [%] (GSH assay) (Glutathione (GSH) assay; pH 7.4, time 90 min): 98.6%

CCCCC/C=C/C(=O)N[C@@H](Cc1ccccc1)C(=O)N[C@H](/C=C/C(=O)O)CCCNC(=N)N [drawing 61]
Area rel. [%] (liver microsomes, NC) [1]: 89.2%

CCCCC/C=C/C(=O)N[C@@H](Cc1ccc(O)cc1)C(=O)N[C@@H](/C=C/C(=O)O)CCCCN [drawing 46]
inhibition (Cathepsin B): 73% | inhibition (hCatL): 96%

CC(C)CC(=O)N[C@H](C(=O)N[C@H](C(=O)N[C@@H](CC(C)C)[C@@H](O)CC(=O)N[C@@H](C)C(=O)N[C@@H](CC(C)C)[C@@H](O)CC(=O)O)C(C)C)C(C)C [pepstatin A, reference compound] (Isovaleryl-VV[Sta]A[Sta]-OH)
inhibited enzyme activity (pepsin), control inhibitor (pepsin): > 95%

CCCCC/C=C/C(=O)N[C@@H](Cc1ccc(O)cc1)C(=O)N[C@@H](/C=C/C(=O)O)CCCCN [drawing 52]
Area rel. [%] (GSH assay, NC) (Glutathione (GSH) assay): 103.9% | Area rel. [%] (GSH assay) (Glutathione (GSH) assay; pH 7.4, time 30 min): 104.3% | Area rel. [%] (GSH assay) (Glutathione (GSH) assay; pH 7.4, time 90 min): 98.0%

CCCCCCCC(=O)N[C@@H](Cc1ccc(O)cc1)C(=O)N[C@H](/C=C/C(=O)O)CCCNC(=N)N [drawing 64]
Area rel. [%] (liver microsomes, NC) [1]: 104.3%

CCCCCCCC(=O)N[C@@H](Cc1ccc(O)cc1)C(=O)N[C@@H](CCCNC(=N)N)CCC(=O)O [drawing 65]
Area rel. [%] (liver microsomes, NC) [1]: 99.5%
